Measurements: US20210179680A1, “POLYPEPTIDE, DERIVATIVES THEREOF, AND APPLICATION THEREOF IN PREPARATION OF DRUGS HAVING RESISTANCE TO PULMONARY FIBROSIS” (priority 2016, published 2021)
Bridge positions count the residues as written; N and C are the ends. Square brackets hold non-standard residues; d marks the D form. Peptide text beside a SMILES is read from it. S5 = C=CCCC[C@](C)(N)C(=O)O

Experiments:
[1] = molecular target: T1, TRB3 protein (Homo sapiens, UniProt Q96RU7); assay: Surface plasmon resonance (Biacore T200) binding of polypeptides to TRB3 protein; settings: SPR, FIG. 4-1, 4-2 and Table 1
T1 construct: purchased RD
T1 sequence (Q96RU7 1-358): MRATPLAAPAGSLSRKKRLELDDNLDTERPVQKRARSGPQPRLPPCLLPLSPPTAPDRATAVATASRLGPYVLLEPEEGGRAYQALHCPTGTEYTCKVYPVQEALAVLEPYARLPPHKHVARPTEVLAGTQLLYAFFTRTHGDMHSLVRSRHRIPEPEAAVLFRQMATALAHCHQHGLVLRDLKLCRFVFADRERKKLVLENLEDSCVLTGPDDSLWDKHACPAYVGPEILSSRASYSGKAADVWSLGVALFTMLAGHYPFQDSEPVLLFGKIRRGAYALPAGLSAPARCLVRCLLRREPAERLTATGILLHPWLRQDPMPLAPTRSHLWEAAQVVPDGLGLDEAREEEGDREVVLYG
Experimental: The surface plasmon resonance experiment was carried out in a surface plasmon resonator Biacore T200, and the procedure was carried out in accordance with the instructions of the plasma resonator Biacore T200. Specific steps are as follows:
1. Purified TRB3 protein (purchased from RD) was coupled to a CMS chip (purchased from GE) by amidogen, and the unbound protein was eluted at a flow rate of 10 μL/min. The surface of the chip was equilibrated for 2 hours. Among them, the specific steps of amidogen coupling, elution and equilibration refer to the relevant instruction of GE's CMS chip.
2. 250 μL of the S1-S11 and MR2 polypeptide fragments prepared in Example 1 with different concentrations (800, 400, 200, 50, 12.5, 6.25, and 3.125 nM) were automatically injected, and the entire surface plasmon resonance experiment was carried out at 25° C. The buffer used was HBS-EP buffer [0.01 M HEPES, 0.15 M NaCl, 3 mM EDTA and 0.005% (w/w) surfactant TWEEN20]. Biacore T200's built-in analysis software was used to simulate the binding curves of different concentrations of peptides to TRB3.

[2] = system: mice with bleomycin-induced pulmonary fibrosis; assay: Lung weight index in mice with pulmonary fibrosis; type: in vivo, C57BL/6 mice; settings: Table 3 groups, 2 mg/kg i.p.; after 28 days; lung weight (mg) divided by body weight (g)
Experimental: (§1) Male C57BL/6 mice were fasted overnight, then anesthetized with 45 mg/kg sodium pentobarbital by injection intraperitoneally (i.p.), and intratracheally injected with bleomycin at a dose of 3 U/kg. The specific operation steps are as follows: cut the neck skin of the mouse with as little trauma as possible, expose the trachea with the assistance of elbow ophthalmic forceps, puncture the trachea and inject about 50 μL of bleomycin into the trachea with a microsyringe, rotate the mouse quickly and stand it upright for 5 minutes in order to make bleomycin evenly enter the left and right lobe, thereby constructing an animal model. The whole operation was performed at a surgical table at about […]. Mice in the sham operation group were intratracheally injected with an equal amount of physiological saline for injection.
Pulmonary fibrosis model was prepared according to the method described in Example 2, and administered in groups according to Table 3. After 28 days, the lungs of the mice were finely stripped and weighed, and a lung weight index was obtained from dividing the lung weight (mg) by the body weight (g) of the mice. […] In FIG. 7, “##” represents that P value is less than 0.01 when the lung weight index of administration group was compared with that of the sham operation group; “*” represents that P value is less than 0.05 when the lung weight index of administration group was compared with that of the bleomycin group; “**” represents that P value is less than 0.01 when the lung weight index of administration group was compared with that of bleomycin group.
Pulmonary fibrosis models were made according to the method described in Example 2 and administered in groups according to Table 9. After 28 days, the lungs of the mice were finely stripped and weighed, and the lung weight (mg) was divided by the body weight (g) of the mice to obtain a lung weight index. […] In FIG. 13, “##” represents that P value is less than 0.01 when the lung weight index of the administration groups were compared with that of the sham operation group; “*” represents that P value is less than 0.05 and “**” represents that P value is less than 0.01 when the lung weight index of the administration groups were compared with bleomycin group.

[3] = system: mice with bleomycin-induced pulmonary fibrosis; assay: Pulmonary function (Flexivent) in mice with pulmonary fibrosis; type: in vivo, C57BL/6 mice; settings: Table 3 groups, 2 mg/kg i.p.; for Dynamic compliance (mL/cmH2O) / Dynamic elasticity (cmH2O./mL) / Dynamic resistance (cmH2O · s/Ml) / Inspiratory capacity: 28th day after model construction; for pulmonary function of mice with pulmonary fibrosis (in words): FIG. 11
Experimental: as §1
(§2) Pulmonary function is a gold indicator for clinical detection of pulmonary fibrosis in patients. The decline of lung function is generally accompanied by an aggravation of fibrosis, while the improvement of lung function generally represents the recovery of lung tissue structure. Pulmonary fibrosis models were prepared according to the method described in Example 2 and administered in groups according to Table 3. On the 28th day after the construction of the animal model, the mice were anesthetized with sodium pentobarbital (45 mg/kg, i.p.). Lung function was tested by the Flexivent Small-animal respiratory mechanics and the testing methods were TLC and SnapShots (Testing method refers to Lv X, Wang X, Li K, et al. Rupatadine Protects against Pulmonary Fibrosis by Attenuating PAF-Mediated Senescence in Rodents [J]. PloS one, 2013, 8(7): e68631).
as §2, with “lung function also generally represents” for “lung function generally represents”, “to Table 9. 28 days later, the mice” for “to Table 3. On the 28th day after the construction of the animal model, the mice”, “Senescence in Rodents[J]. PloS one,” for “Senescence in Rodents [J]. PloS one,”

Row | SMILES | interaction with the TRB3 protein (in words) [1] | Lung weight index [2] | Dynamic compliance (mL/cmH2O) [3] | Dynamic elasticity (cmH2O./mL) [3] | Dynamic resistance (cmH2O · s/Ml) [3] | Inspiratory capacity [3] | pulmonary function of mice with pulmonary fibrosis (in words) [3]
1 | CSCC[C@H](NC(=O)[C@H](CC(C)C)NC(=O)[C@@H](N)Cc1c[nH]cn1)C(=O)N[C@@]1(C)CCCC=CCCC[C@@](C)(C(=O)N[C@@H](C)C(=O)N[C@@H](CCCCN)C(=O)N[C@@H](CCCCN)C(=O)N[C@@H](CC(C)C)C(=O)N[C@@H](CCCCN)C(=O)N[C@@H](CCCCN)C(=O)N[C@@H](CCCNC(=N)N)C(=O)O)NC(=O)[C@H]([C@@H](C)O)NC(=O)[C@H](Cc2ccccc2)NC(=O)[C@H](CS)NC1=O [S4, His-Leu-Met-S5-Cys-Phe-Thr-S5-Ala-Lys-Lys-Leu-Lys-Lys-Arg] (H-HLM[S5]CFT[S5]AKKLKKR-OH; staple 4-8; N-terminus and C-terminus assumed) | interacted with the TRB3 protein | 8.925 | 0.2617 mL/cmH2O | 59.33 cmH2O./mL | 1.267 cmH2O · s/Ml | 0.564 mL | improved
2 | CSCC[C@H](NC(=O)[C@H](CC(C)C)NC(=O)[C@@H](N)Cc1c[nH]cn1)C(=O)N[C@@H](C)C(=O)N[C@@]1(C)CCCC=CCCC[C@@](C)(C(=O)N[C@@H](CCCCN)C(=O)N[C@@H](CCCCN)C(=O)N[C@@H](CC(C)C)C(=O)N[C@@H](CCCCN)C(=O)N[C@@H](CCCCN)C(=O)N[C@@H](CCCNC(=N)N)C(=O)O)NC(=O)[C@H](CS)NC(=O)[C@H]([C@@H](C)O)NC(=O)[C@H](Cc2ccccc2)NC1=O [S5, His-Leu-Met-Ala-S5-Phe-Thr-Cys-S5-Lys-Lys-Leu-Lys-Lys-Arg] (H-HLMA[S5]FTC[S5]KKLKKR-OH; staple 5-9; N-terminus and C-terminus assumed) | interacted with the TRB3 protein | 8.575 | 0.3117 mL/cmH2O | 47.5 cmH2O./mL | 0.85 cmH2O · s/Ml | 0.738 mL | improved
3 | CSCC[C@H](NC(=O)[C@H](CC(C)C)NC(=O)[C@@H](N)Cc1c[nH]cn1)C(=O)N[C@@H](C)C(=O)N[C@@H](CS)C(=O)N[C@@]1(C)CCCC=CCCC[C@@](C)(C(=O)N[C@@H](CCCCN)C(=O)N[C@@H](CC(C)C)C(=O)N[C@@H](CCCCN)C(=O)N[C@@H](CCCCN)C(=O)N[C@@H](CCCNC(=N)N)C(=O)O)NC(=O)[C@H](C)NC(=O)[C@H](CS)NC(=O)[C@H]([C@@H](C)O)NC1=O [S6, His-Leu-Met-Ala-Cys-S5-Thr-Cys-Ala-S5-Lys-Leu-Lys-Lys-Arg] (H-HLMAC[S5]TCA[S5]KLKKR-OH; staple 6-10; N-terminus and C-terminus assumed) | interacted with the TRB3 protein | 9.725 | 0.2683 mL/cmH2O | 52.17 cmH2O./mL | 1.067 cmH2O · s/Ml | 0.558 mL | improved
4 | CSCC[C@H](NC(=O)[C@H](CC(C)C)NC(=O)[C@@H](N)Cc1c[nH]cn1)C(=O)N[C@@H](C)C(=O)N[C@@H](CS)C(=O)N[C@@H](Cc1ccccc1)C(=O)N[C@@]1(C)CCCC=CCCC[C@@](C)(C(=O)N[C@@H](CC(C)C)C(=O)N[C@@H](CCCCN)C(=O)N[C@@H](CCCCN)C(=O)N[C@@H](CCCNC(=N)N)C(=O)O)NC(=O)[C@H](CCCCN)NC(=O)[C@H](C)NC(=O)[C@H](CS)NC1=O [S7, His-Leu-Met-Ala-Cys-Phe-S5-Cys-Ala-Lys-S5-Leu-Lys-Lys-Arg] (H-HLMACF[S5]CAK[S5]LKKR-OH; staple 7-11; N-terminus and C-terminus assumed) | interacted with the TRB3 protein | 7.675 | 0.29 mL/cmH2O | 51 cmH2O./mL | 0.8833 cmH2O · s/Ml | 0.684 mL | improved
5 | CSCC[C@H](NC(=O)[C@H](CC(C)C)NC(=O)[C@@H](N)Cc1c[nH]cn1)C(=O)N[C@@H](C)C(=O)N[C@@H](CS)C(=O)N[C@@H](Cc1ccccc1)C(=O)N[C@H](C(=O)N[C@@]1(C)CCCC=CCCC[C@@](C)(C(=O)N[C@@H](CCCCN)C(=O)N[C@@H](CCCCN)C(=O)N[C@@H](CCCNC(=N)N)C(=O)O)NC(=O)[C@H](CCCCN)NC(=O)[C@H](CCCCN)NC(=O)[C@H](C)NC1=O)[C@@H](C)O [S8, His-Leu-Met-Ala-Cys-Phe-Thr-S5-Ala-Lys-Lys-S5-Lys-Lys-Arg] (H-HLMACFT[S5]AKK[S5]KKR-OH; staple 8-12; N-terminus and C-terminus assumed) | interacted with the TRB3 protein | 8.775 | 0.2583 mL/cmH2O | 66.5 cmH2O./mL | 1.35 cmH2O · s/Ml | 0.626 mL | improved
6 | CSCC[C@H](NC(=O)[C@H](CC(C)C)NC(=O)[C@@H](N)Cc1c[nH]cn1)C(=O)N[C@@H](C)C(=O)N[C@@H](CS)C(=O)N[C@@H](Cc1ccccc1)C(=O)N[C@H](C(=O)N[C@@H](CS)C(=O)N[C@@]1(C)CCCC=CCCC[C@@](C)(C(=O)N[C@@H](CCCCN)C(=O)N[C@@H](CCCNC(=N)N)C(=O)O)NC(=O)[C@H](CC(C)C)NC(=O)[C@H](CCCCN)NC(=O)[C@H](CCCCN)NC1=O)[C@@H](C)O [S9, His-Leu-Met-Ala-Cys-Phe-Thr-Cys-S5-Lys-Lys-Leu-S5-Lys-Arg] (H-HLMACFTC[S5]KKL[S5]KR-OH; staple 9-13; N-terminus and C-terminus assumed) | interacted with the TRB3 protein | 7.4125 | 0.27 mL/cmH2O | 44.5 cmH2O./mL | 1.033 cmH2O · s/Ml | 0.686 mL | improved
